Assay results taken from article PMC5187867, “Crystal Structure of a Putative Cytochrome P450 Alkane Hydroxylase (CYP153D17) from Sphingomonas sp. PAMC 26605 and Its Conformational Substrate Binding” (International Journal of Molecular Sciences, 2016).

Target: CYP153D17 (Sphingomonas sp. PAMC 26605, UniProt A0ACD6BAR9)
Test: UV-Vis spectral binding titration (substrate binding assay) of purified CYP153D17
Details: 1 μM CYP153D17; for Kd: apparent dissociation constant from titration curves (A390-A420); for Spin Shift (%): shift in heme spin state from low-spin (Soret maximum at 420 nm) to high-spin (390 nm)
Experimental: To determine the binding affinity of CYP153D17, spectral binding titrations were performed with the alkanes (decane and dodecane) and fatty acids (capric acid, lauric acid, and myristic acid). All tested substrates changed the spectrum of CYP153D17, with a shift of the Soret band at 420 to 390 nm, which is typical of the high-spin form (Figure 2), after which the apparent dissociation constants from the titration curves (Kd values) were obtained (Table 1). Dodecane, capric acid, and lauric acid binding to CYP153D17 induced a ≥90% shift in the heme spin state from low-spin (Soret maximum at 420 nm) to high-spin (Soret maximum at 390 nm), whereas decane and myristic acid induced a ≥80% shift in the same heme spin state.
To determine whether CYP153D17 can bind alkanes and fatty acids, a UV-Vis (Ultraviolet-Visible) spectral binding titration assay was performed. Binding of the substrate to CYP153D17 induced a shift of the Soret band of the CYP absorption spectrum from A420 to A390 [30]. Alkanes (decane and dodecane) and fatty acids (capric acid, lauric acid, and myristic acid) were dissolved in ethanol to prepare stock solutions of different concentrations (0.4–5 mM) for each substrate. Binding of substrate to CYP153D17 was carried out by the consecutive addition of 1-μL aliquots from the stock solutions to 1 mL of 1 μM CYP153D17 solution, and the UV–Vis spectra of the mixture were recorded. To calculate Kd, the difference between adsorption at A390 and A420 was calculated, corrected with the A390-to-A420 value at 0 M substrate, and plotted against the substrate concentrations. The data were fitted to equations as described by Funhoff et al..

Chain of CYP153D17 (A0ACD6BAR9 1-407): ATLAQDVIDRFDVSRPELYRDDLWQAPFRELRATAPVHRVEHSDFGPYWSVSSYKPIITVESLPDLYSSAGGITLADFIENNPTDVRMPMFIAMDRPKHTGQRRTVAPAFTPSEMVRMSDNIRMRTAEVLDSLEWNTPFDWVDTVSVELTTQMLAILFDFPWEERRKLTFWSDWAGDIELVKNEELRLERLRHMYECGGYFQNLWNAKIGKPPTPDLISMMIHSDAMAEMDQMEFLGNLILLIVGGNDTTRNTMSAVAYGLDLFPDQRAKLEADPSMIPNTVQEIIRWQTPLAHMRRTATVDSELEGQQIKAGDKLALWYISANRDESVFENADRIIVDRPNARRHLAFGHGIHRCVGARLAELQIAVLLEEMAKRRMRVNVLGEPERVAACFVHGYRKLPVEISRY

SMILES: CCCCCCCCCC(=O)O [Capric acid, capric acid]
- Kd: 460 ± 410 nM
- Spin Shift (%): ≥90%
- Spin Shift (%) (listed as capric acid): ≥ 90%

SMILES: CCCCCCCCCC [Decane, decane]
- Kd: 590 ± 690 nM
- Spin Shift (%): ≥80%
- Spin Shift (%) (listed as decane): ≥ 80%

SMILES: CCCCCCCCCCCC [Dodecane, dodecane]
- Kd: 420 ± 140 nM

SMILES: CCCCCCCCCCCC(=O)O [Lauric acid, lauric acid]
- Kd: 490 ± 700 nM
- Spin Shift (%): ≥90%
- Spin Shift (%) (listed as lauric acid): ≥ 90%

SMILES: CCCCCCCCCCCCCC(=O)O [Myristic acid, myristic acid]
- Kd: 540 ± 330 nM
- Spin Shift (%): ≥80%
- Spin Shift (%) (listed as myristic acid): ≥ 80%
